Key:
[1] = tested on: diet induced obese mice (C57BL6); experiment: Diet induced obese mice, 10 days oral 30 mg/kg: body weight and serum cholesterol; type: in vivo, mouse; details: DIO C57BL6 mice, 30 mg/kg oral gavage; for Cholesterol Change: serum
Experimental: Compounds were tested in diet induced obese mice (C57BL6) that were on a 65% high fat diet for 8-10 weeks. Mice were dosed for 10 days by oral gavage with 30 mg/kg of the compounds listed. Their body weights were recorded along with serum chemistries including cholesterol.

[2] = target: T1, recombinant human MetAP2 (Homo sapiens, UniProt P50579); experiment: Recombinant human MetAP2 inhibition assay (MAS substrate, Amplex red fluorescence); type: biochemical; details: human recombinant MetAP2 manganese enzyme, 0.75 mM MAS substrate, 30 minutes at 25° C., pH 7.5; read-out: Activity (MetAP2 IC50 class)
T1 construct: made in house; host or cells: Sf9 insect cells
Experimental: Compounds are tested for their capacity to inhibit recombinant human MetAP2 activity using the following assay.
Human recombinant MetAP2 expressed in Sf9 cells followed by affinity purification and EDTA treatment to remove endogenous active site cation was dialysed against MnCl2 to produce the manganese enzyme used in the assay. The assay was carried out for 30 minutes at 25° C. in 50 mM HEPES buffer containing 100 mM NaCl, pH 7.5 the presence of 0.75 mM Methionine-Alanine-Serine (MAS) substrate and 50 µg/ml amino acid oxidase using a dilution of purified MetAP2 giving >3-fold signal: noise. Cleavage of the substrate by MetAP2 and oxidation of free methionine by amino acid oxidase was detected and quantified using fluorescence generated by Amplex red (10-acetyl-3,7-dihydroxyphenoxazine) in combination with horseradish peroxidase which detects H2O2 released during the oxidation step. The fluorescent signal was detected using a multiwell fluorimeter. Compounds were diluted in DMSO prior to addition to assay buffer, the final DMSO concentration in the assay being 1%.
IC50 values are calculated using the XLfit software package (version 2.0.5).

[3] = tested on: NASH mice; experiment: Non-alcoholic steatohepatitis (STZ + high fat diet) mouse model; type: in vivo
Experimental: NASH was induced in 48 male mice by a single subcutaneous injection of 200 μg streptozotocin (STZ; Sigma-Aldrich) in the back of mice 2 days after birth, and by feeding with high fat diet (HFD; 57 kcal % fat) after 4 weeks of age. At 5 weeks of age, the NASH mice were randomized into 6 groups of 8 mice based on body weight. Eight male littermates, fed with normal diet (without STZ treatment, were used for the Normal group. Vehicle, Compound A and Telmisartan were administered by the oral route in a volume of 10 mL/kg body weight.
Compound A was administered twice daily at doses of 1, 3 or 10 mg/kg body weight (i.e., 2, 6 or 20 mg/kg/day) and once daily at dose of 30 mg/kg body weight. Telmisartan was administered once daily at a dose of 10 mg/kg body weight.
C57BL/6 mice (15-day pregnant female) were obtained from Charles River Laboratories Japan (Japan). The animals were maintained in a SPF facility under controlled conditions of temperature (23±2° C.), humidity (45±10%), lighting (12-hour artificial light and dark cycles; light from 8:00 to 20:00) and air exchange. A high pressure (20±4 Pa) was maintained in the experimental room to prevent contamination of the facility.
Mice were fasted for 4 hours before blood was collected at the time of sacrifice. HbA1c levels were quantified in whole blood samples by DCA Vantage Analyzer (Siemens Healthcare Diagnostics, USA). For plasma biochemistry, blood was collected in polypropylene tubes with anticoagulant (Novo-Heparin;) and centrifuged at 1,000×g for 15 minutes at 4° C. The supernatant was collected and stored at −80° C. until use. Plasma levels of glucose, ALT, TG and total cholesterol were measured by FUJI DRI-CHEM 7000 (Fujifilm, Japan). Plasma insulin concentration was quantified by the Ultra Sensitive Mouse Insulin ELISA Kit.
Liver total lipid-extracts were obtained by Folch's method (Folch J. et al., J. Biol. Chem. 1957; 226: 497). Liver samples were homogenized in chloroform-methanol (2:1, v/v) and incubated overnight at room temperature. After washing with chloroform-methanol-water (8:4:3, v/v/v), the extracts were evaporated to dryness, and dissolved in isopropanol. Liver TG levels were measured by Triglyceride E-test (Wako Pure Chemical Industries). Extracts were diluted 2-fold in isopropanol when the TG content exceeded the detection limit.
For HE staining, sections were cut from paraffin blocks of liver tissue prefixed in Bouin's solution and stained with Lillie-Mayer's Hematoxylin (Muto Pure Chemicals, Japan) and eosin solution (Wako Pure Chemical Industries). NAFLD Activity score (NAS) was calculated according to the criteria of Kleiner (Kleiner D E et al., Hepatology, 2005; 41:1313). To visualize collagen deposition, Bouin's fixed liver sections were stained using picro-Sirius red solution (Waldeck, Germany). To visualize macro- and microvesicular fat, cryosections were cut from frozen liver tissues, prefixed in 10% neutral buffered formalin, embedded in Tissue-Tek O.C.T. compound (Sakura Finetek Japan, Japan), and stained with Oil Red O (Sigma-Aldrich). For immunohistochemistry, sections were cut from frozen liver tissues embedded in Tissue-Tek O.C.T. compound and fixed in acetone. Endogenous peroxidase activity was blocked using 0.03% H2O2 for 5 minutes, followed by incubation with Block Ace (Dainippon Sumitomo Pharma, Japan) for 10 minutes. The sections were incubated with a 200-fold dilution of anti-F4/80 antibody (BMA Biomedicals, Switzerland) over night at 4° C. After incubation with secondary antibody (HRP-Goat anti-rat antibody, Invitrogen, USA), enzyme-substrate reactions were performed using 3, 3′-diaminobenzidine/H2O2 solution (Nichirei, Japan). […]

T1 sequence (P50579 whole entry): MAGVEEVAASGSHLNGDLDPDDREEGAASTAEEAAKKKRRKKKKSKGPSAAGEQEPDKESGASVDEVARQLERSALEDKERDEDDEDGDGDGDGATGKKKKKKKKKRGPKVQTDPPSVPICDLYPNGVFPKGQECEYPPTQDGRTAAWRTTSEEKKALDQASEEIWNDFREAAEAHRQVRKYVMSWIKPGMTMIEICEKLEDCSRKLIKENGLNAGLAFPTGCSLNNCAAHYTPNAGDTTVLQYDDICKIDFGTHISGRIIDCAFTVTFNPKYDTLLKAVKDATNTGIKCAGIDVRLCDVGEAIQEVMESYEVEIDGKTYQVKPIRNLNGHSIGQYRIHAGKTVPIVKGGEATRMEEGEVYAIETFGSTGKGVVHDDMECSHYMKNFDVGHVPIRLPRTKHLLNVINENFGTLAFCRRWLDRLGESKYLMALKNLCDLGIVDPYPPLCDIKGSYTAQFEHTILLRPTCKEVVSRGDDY

| Molecule | IC50 [2] [µM] | other results |
| --- | --- | --- |
| CCN(CC)C/C=C\c1cc(F)ccc1S(=O)(=O)Nc1ccc2c(c1C(=O)O)OCCc1occc1-2 | – | Body Weight Change [1]: −2.1%; Cholesterol Change [1]: No change |
| CCN(CC)CC/C=C\c1cc(F)ccc1S(=O)(=O)Nc1ccc2c(c1C(=O)O)OC[C@@H]1C[C@H]21 (racemic) [(1aRS,7bSR)-5-[2((Z)-4-Diethylaminobut-1-enyl)-4-fluorobenzenesulfonyl-amino]-1,1a,2,7b-tetrahydrocyclopropa[c]chromene-4-carboxylic acid] | < 0.05 | – |
| O=C(O)c1c(NS(=O)(=O)c2ccc(F)cc2/C=C\CN2CCCC2)ccc2c1OCC1CC21 (single isomer, unassigned) [listing 1 of 2 here] | 0.05 to 0.5 | – |
| CCN1CC[C@@H](Cc2cc(F)ccc2S(=O)(=O)Nc2ccc3c(c2C(=O)O)OCC2CC32)C1 (single isomer, unassigned) [listing 1 of 2 here] | < 0.05 | – |
| CCN(CC)C/C=C\c1cc(F)ccc1S(=O)(=O)Nc1ccc2c(c1C(=O)O)OC[C@H]1CCCN21 | – | Body Weight Change [1]: −2.0%; Cholesterol Change [1]: −24% |
| CCN(CC)C/C=C\c1ccccc1S(=O)(=O)Nc1ccc2c(c1C(=O)O)OCC1CC21 (single isomer, unassigned) [listing 1 of 2 here] | < 0.05 | – |
| CCN(CC)C/C=C\c1ccccc1S(=O)(=O)Nc1ccc2c(c1C(=O)O)OCC1CC21 (single isomer, unassigned) [listing 2 of 2 here] | 0.05 to 0.5 | – |
| O=C(O)c1c(NS(=O)(=O)c2ccccc2)ccc2c3c(cnc12)OCC3 | < 0.05 | – |
| CCN1CC[C@H](N(C)C(=O)Cc2cc(F)ccc2S(=O)(=O)Nc2ccc3c(c2C(=O)O)OC[C@@H]2C[C@H]32)C1 (mixture of isomers) | 0.05 to 0.5 | – |
| CCN1CCC[C@H]1C(=O)N(C)Cc1cc(F)ccc1S(=O)(=O)Nc1ccc2c(c1C(=O)O)OC[C@@H]1C[C@H]21 (mixture of isomers) | 0.05 to 0.5 | – |
| CCN(CC)C/C=C/c1cc(F)ccc1S(=O)(=O)Nc1ccc2c(c1C(=O)O)OC[C@@H]1C[C@]21C (racemic) [(1aRS,7bSR)-5-[2-((E)-3-Diethylaminoprop-1-enyl)-4-fluorobenzenesulfonylamino]-7b-methyl-1,1a,2,7b-tetrahydrocyclopropa[c]chromene-4-carboxylic acid] | 0.05 to 0.5 | – |
| CCN(CC)C/C=C\c1ccccc1S(=O)(=O)Cc1ccc(-c2ccoc2)c(OC)c1C(=O)O | – | Body Weight Change [1]: −6.0%; Cholesterol Change [1]: No change |
| CCNC/C=C\c1cc(F)ccc1S(=O)(=O)Nc1ccc2c(c1C(=O)O)OCC1CC21 (single isomer, unassigned) [listing 1 of 2 here] | 0.05 to 0.5 | – |
| CN(C)CCCNc1ccccc1S(=O)(=O)Nc1ccc2c(c1C(=O)O)OCC1CC21 (single isomer, unassigned) | < 0.05 | – |
| (1aRS,7bSR)-5-{2[(Z)-3-((R)-3-Hydroxypyrrolidin-1-yl)aminoprop-1-enyl]-4-fluorobenzene-sulfonylamino}-1,1a,2,7b-tetrahydro-cyclopropa[c]chromene-4-carboxylic acid | 0.05 to 0.5 | – |
| CC(C)NC/C=C\c1cc(F)ccc1S(=O)(=O)Nc1ccc2c(c1C(=O)O)OC[C@@H]1C[C@H]21 (racemic) [(1aRS,7bSR)-5-{2[(Z)-3-(propan-2-yl)aminoprop-1-enyl]-4-fluorobenzene-sulfonylamino}-1,1a,2,7b-tetrahydrocyclopropa[c]chromene-4-carboxylic acid] | 0.05 to 0.5 | – |
| CCCc1nc2c(C)cc(-c3nc4ccccc4n3C)cc2n1Cc1ccc(-c2ccccc2C(=O)O)cc1 [Telmisartan, reference compound] | – | Mean body weight at the day before sacrifice ([3]; Telmisartan 10 mg/kg once daily oral, 5 to 9 weeks of age, Vehicle 18.8±1.0 g): 15.6 ± 1.8 g; Fibrosis area (Sirius red-positive area) ([3]; Telmisartan 10 mg/kg once daily, Vehicle 1.07±0.18%): 0.42±0.08%; Inflammation area (F4/80-positive area) ([3]; Telmisartan 10 mg/kg once daily, Vehicle 3.57±0.88%): 3.84±0.86%; NAFLD Activity score (NAS) ([3]; Telmisartan 10 mg/kg once daily, Vehicle 5.4±0.9): 2.3±0.7; Fat deposition area (oil red-positive area) ([3]; Telmisartan 10 mg/kg once daily, Vehicle 23.57±6.52%): 17.29±7.66%; Liver TG content ([3]; Telmisartan 10 mg/kg once daily, Vehicle 67.3±29.0): 30.7±11.4 mg/g liver |
| CCN(CC)C/C=C\c1cc(F)ccc1S(=O)(=O)Nc1ccc2c(c1C(=O)O)OC[C@@H]1C[C@]21C (racemic) [(1aRS,7bSR)-5-[2-((Z)-3-Diethylaminoprop-1-enyl)-4-fluorobenzenesulfonylamino]-7b-methyl-1,1a,2,7b-tetrahydrocyclopropa[c]chromene-4-carboxylic acid] | < 0.05 | – |
| CCNC/C=C\c1cc(F)ccc1S(=O)(=O)Nc1ccc2c(c1C(=O)O)OCC1CC21 (single isomer, unassigned) [listing 2 of 2 here] | < 0.05 | – |
| CCN1CC[C@@H](NC(=O)Cc2cc(F)ccc2S(=O)(=O)Nc2ccc3c(c2C(=O)O)OC[C@@H]2C[C@H]32)C1 (mixture of isomers) | 0.05 to 0.5 | – |
| CCN1CC[C@@H](Cc2cc(F)ccc2S(=O)(=O)Nc2ccc3c(c2C(=O)O)OCC2CC32)C1 (single isomer, unassigned) [listing 2 of 2 here] | 0.05 to 0.5 | – |
| CCN1CC(CNc2ccccc2S(=O)(=O)Nc2ccc3c(c2C(=O)O)OC[C@@H]2C[C@H]32)C1 (racemic) [(1aRS,7bSR)-5-{2-[(1-Ethylazetidin-3-ylmethyl)amino]benzene-sulfonylamino}-1,1a,2,7b-tetrahydrocyclopropa[c]chromene-4-carboxylic acid] | 0.05 to 0.5 | – |
| O=C(O)c1c(NS(=O)(=O)c2ccc(F)cc2/C=C\CN2CC(O)C2)ccc2c1OC[C@@H]1C[C@H]21 (racemic) [(1aRS,7bSR)-5-{2[(Z)-3-(3-Hydroxyazetidin-1-yl)prop-1-enyl]-4-fluorobenzene-sulfonylamino}-1,1a,2,7b-tetrahydrocyclopropa[c]chromene-4-carboxylic acid] | < 0.05 | – |
| CCN1CC[C@@H](N(C)C(=O)Cc2cc(F)ccc2S(=O)(=O)Nc2ccc3c(c2C(=O)O)OC[C@@H]2C[C@H]32)C1 (mixture of isomers) | 0.05 to 0.5 | – |
| CN(C)CCCCNc1ccccc1S(=O)(=O)Nc1ccc2c(c1C(=O)O)OCC1CC21 (single isomer, unassigned) | < 0.05 | – |
| (1aRS,7bSR)-5-{2[(Z)-3-((S)-3-hydroxypyrrolidin-1-yl)aminoprop-1-enyl]-4-fluorobenzenesulfonylamino}-1,1a,2,7b-tetrahydrocyclopropa[c]chromene-4-carboxylic acid | 0.05 to 0.5 | – |
| CCN(CC)C/C=C\c1cc(F)ccc1S(=O)(=O)Nc1ccc2c(c1C(=O)O)OC[C@@H]1[C@H]2C1(F)F (racemic) [(1aRS,7bSR)-5-[2-((Z)-3-Diethylaminoprop-1-enyl)-4-fluorobenzene-sulfonylamino]-1,1-difluoro-1,1a,2,7b-tetrahydrocyclopropa[c]chromene-4-carboxylic acid] | < 0.05 | – |
| O=C(O)c1c(NS(=O)(=O)c2ccc(F)cc2/C=C\CN2CCCC2)ccc2c1OCC1CC21 (single isomer, unassigned) [listing 2 of 2 here] | 0.05 to 0.5 | – |
